According to patent publication US10294202B2, “Pyrrolidinones as herbicides” (FMC Corporation, priority 2013, dated 2019):

How the values were obtained:
rice = assay: Test C flooded paddy test; format: in vivo, Oryza sativa; settings: Flood
Summary of the method: (§1)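 Visual injury scored against controls after 13 to 15 days in the greenhouse, using 0 (no effect) to 100 (complete control). Test compounds went straight into paddy water held 3 cm above the soil surface on 2-leaf-stage plants, with that flood depth maintained for the whole test.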

ducksalad = assay: Test C flooded paddy test; format: in vivo, Heteranthera limosa; settings: Flood
Summary of the method: as §1

velvetleaf = assay: Test A pre-/postemergence herbicide test; format: in vivo, Abutilon theophrasti; settings: for Velvetleaf plant response rating: visual rating on 0 to 100 scale (0 no effect, 100 complete control)
Summary of the method: (§2)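 Directed soil spray to seeded pots (preemergence) or spray onto one- to two-leaf seedlings 2–10 cm tall (postemergence); loam/sand substrate throughout. Evaluated visually after about 10 days against untreated plants, 0 = no effect, 100 = complete control.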

sedge, umbrella = assay: Test C flooded paddy test; format: in vivo, Cyperus difformis; settings: Flood
Summary of the method: as §1

kochia = assay: Test A pre-/postemergence herbicide test; format: in vivo, Kochia scoparia
Summary of the method: as §2

blackgrass = assay: Test A postemergence herbicide test; format: in vivo, Alopecurus myosuroides
Summary of the method: (§3)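 Injury was rated visually about 10 days after treatment on a 0 (no effect) to 100 (complete control) scale, compared with untreated plants. Test chemicals were sprayed postemergence onto greenhouse plants 2–10 cm high at one to two leaves, grown in a loam–sand blend.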

ryegrass, Italian = assay: Test A pre-/postemergence herbicide test; format: in vivo, Lolium multiflorum
Summary of the method: as §2

ragweed = assay: Test A pre-/postemergence herbicide test; format: in vivo, Ambrosia elatior
Summary of the method: as §2

galium = assay: Test A postemergence herbicide test; format: in vivo, Galium aparine
Summary of the method: as §3

[1] = 31 g ai/ha, scale of 0 to 100 where 0 is no effect and 100 is complete control, 13 to 15 days
[2] = 62 g ai/ha, scale of 0 to 100 where 0 is no effect and 100 is complete control, 13 to 15 days
[3] = 125 g ai/ha, scale of 0 to 100 where 0 is no effect and 100 is complete control, 13 to 15 days
[4] = Postemergence, 500 g ai/ha, 0 to 100 scale (0 no effect, 100 complete control)
[5] = preemergence, 500 g ai/ha, 0 to 100 scale
[6] = Postemergence, 125 g ai/ha, 0 to 100 scale, 0 is no effect, 100 is complete control
[7] = preemergence, 500 g ai/ha, 0 to 100 scale, 0 is no effect and 100 is complete control
[8] = 250 g ai/ha, scale of 0 to 100 where 0 is no effect and 100 is complete control, 13 to 15 days
[9] = Preemergence, 125 g ai/ha, 0 to 100 scale where 0 is no effect and 100 is complete control
[10] = Postemergence, 125 g ai/ha, visual rating on 0 to 100 scale (0 no effect, 100 complete control), approx. 10 days
[11] = Preemergence, 500 g ai/ha, visual rating on 0 to 100 scale (0 no effect, 100 complete control)
[12] = 125 g ai/ha, visual rating on 0 to 100 scale (0 no effect, 100 complete control), approx. 10 days
[13] = 500 g ai/ha, 0 to 100 scale (0 no effect, 100 complete control)

`O=C1NCC(c2cccc(C(F)(F)F)c2)C1C(=O)Nc1ccccc1F` (racemic) [Compound 3] was tested, and the “Plant response rating, Rice” value (rice; [1]) was 0, the “Plant response rating, Rice” value (rice; [2]) was 0 and the “Plant response rating, Rice” value (rice; [3]) was 0. For the same molecule, the “Plant response rating, Rice” value (rice; 250 g ai/ha, scale 0 to 100) was 0, the “Plant response rating, Ducksalad” value (ducksalad; [1]) was 40 and the “Plant response rating, Ducksalad” value (ducksalad; [2]) was 60. The “Plant response rating, Ducksalad” value (ducksalad; [3]) was 85, the “Plant response rating, Ducksalad” value (ducksalad; 250 g ai/ha, scale 0 to 100) was 90 and the “Plant response rating, Velvetleaf” value (velvetleaf; [4]) was 0. The “Velvetleaf plant response rating” value (velvetleaf; Preemergence, 125 g ai/ha) was 0, the “Plant response rating, Velvetleaf” value (velvetleaf; [5]) was 0 and the “Plant response rating, Sedge, Umbrella” value (sedge, umbrella; [1]) was 0. The “Plant response rating, Sedge, Umbrella” value (sedge, umbrella; [2]) was 0, the “Plant response rating, Sedge, Umbrella” value (sedge, umbrella; [3]) was 0 and the “Plant response rating, Sedge, Umbrella” value (sedge, umbrella; 250 g ai/ha, scale 0 to 100) was 50.

With `O=C1NCC(c2ccc(F)c(F)c2)C1C(=O)Nc1cccc(F)c1` (racemic) [Compound 12] the “Plant response rating, Rice” value (rice; [1]) was 0, the “Plant response rating, Rice” value (rice; [2]) was 0 and the “Plant response rating, Rice” value (rice; [3]) was 0. For the same molecule, the “Plant response rating, Rice” value (rice; 250 g ai/ha, scale 0 to 100) was 0, the “Plant response rating, Ducksalad” value (ducksalad; [1]) was 0 and the “Plant response rating, Ducksalad” value (ducksalad; [2]) was 0. The “Plant response rating, Ducksalad” value (ducksalad; [3]) was 0, the “Plant response rating, Ducksalad” value (ducksalad; 250 g ai/ha, scale 0 to 100) was 0 and the “Plant response rating, Velvetleaf” value (velvetleaf; Postemergence, 125 g ai/ha, 0 to 100 scale, 0 no effect, 100 complete control) was 0. The “Plant response rating, Velvetleaf” value (velvetleaf; [4]) was 20, the “Velvetleaf plant response rating” value (velvetleaf; Preemergence, 125 g ai/ha) was 0 and the “Plant response rating, Velvetleaf” value (velvetleaf; [5]) was 0. For the same molecule, the “Plant response rating, Sedge, Umbrella” value (sedge, umbrella; [1]) was 0, the “Plant response rating, Sedge, Umbrella” value (sedge, umbrella; [2]) was 0 and the “Plant response rating, Sedge, Umbrella” value (sedge, umbrella; [3]) was 0. For the same molecule, the “Plant response rating, Sedge, Umbrella” value (sedge, umbrella; 250 g ai/ha, scale 0 to 100) was 0.

For `O=C1NCC(c2cccc(C(F)(F)F)c2)C1C(=O)Nc1ccccc1Cl` (racemic) [Compound 189], the “Plant response rating, Rice” value (rice; [3]) was 0, the “Plant response rating, Rice” value (rice; 250 g ai/ha, scale 0 to 100) was 0 and the “Plant response rating, Rice” value (rice; 500 g ai/ha, scale 0 to 100) was 0. The “Plant response rating, Rice” value (rice; 1000 g ai/ha, scale 0 to 100) was 0, the “Plant response rating, Ducksalad” value (ducksalad; [3]) was 75 and the “Plant response rating, Ducksalad” value (ducksalad; 250 g ai/ha, scale 0 to 100) was 80. For the same molecule, the “Plant response rating, Ducksalad” value (ducksalad; 500 g ai/ha, scale 0 to 100) was 95, the “Plant response rating, Ducksalad” value (ducksalad; 1000 g ai/ha, scale 0 to 100) was 100 and the “Plant response rating, Velvetleaf” value (velvetleaf; 125 g ai/ha, visual rating, 0 to 100 scale, 0 no effect, 100 complete control, approximately 10 days, preemergence) was 0. For the same molecule, the “Plant response rating, Velvetleaf” value (velvetleaf; [6]) was 0, the “Velvetleaf plant response rating (0 to 100 scale, 0 is no effect, 100 is complete control)” value (velvetleaf; Postemergence, 500 g ai/ha) was 0 and the “Plant response rating, Velvetleaf” value (velvetleaf; [7]) was 0. For the same molecule, the “Plant response rating, Sedge, Umbrella” value (sedge, umbrella; [3]) was 0, the “Plant response rating, Sedge, Umbrella” value (sedge, umbrella; 250 g ai/ha, scale 0 to 100) was 0 and the “Plant response rating, Sedge, Umbrella” value (sedge, umbrella; 500 g ai/ha, scale 0 to 100) was 0. The “Plant response rating, Sedge, Umbrella” value (sedge, umbrella; 1000 g ai/ha, scale 0 to 100) was 0.

In the case of `O=C1NCC(c2ccc(C(F)(F)F)c(F)c2)C1C(=O)Nc1cccc(F)c1F` (racemic) [Compound 247], the “Plant response rating, Rice” value (rice; [8]) is reported as 0, the “Plant response rating, Rice” value (rice; 500 g ai/ha, scale 0 to 100) is reported as 0 and the “Plant response rating, Rice” value (rice; 1000 g ai/ha, scale 0 to 100) is reported as 0. The “Plant response rating, Rice” value (rice; 2000 g ai/ha, scale 0 to 100) was 15, the “Plant response rating, Ducksalad” value (ducksalad; [8]) was 75 and the “Plant response rating, Ducksalad” value (ducksalad; 500 g ai/ha, scale 0 to 100) was 85. The “Plant response rating, Ducksalad” value (ducksalad; 1000 g ai/ha, scale 0 to 100) was 100, the “Plant response rating, Ducksalad” value (ducksalad; 2000 g ai/ha, scale 0 to 100) was 100 and the “Plant response rating, Velvetleaf” value (velvetleaf; [6]) was 0. The “Plant response rating, Velvetleaf” value (velvetleaf; [4]) was 0, the “Plant response rating, Velvetleaf” value (velvetleaf; [9]) was 0 and the “Plant response rating, Velvetleaf” value (velvetleaf; [7]) was 0. The “Plant response rating, Sedge, Umbrella” value (sedge, umbrella; [8]) was 0, the “Plant response rating, Sedge, Umbrella” value (sedge, umbrella; 500 g ai/ha, scale 0 to 100) was 0 and the “Plant response rating, Sedge, Umbrella” value (sedge, umbrella; 1000 g ai/ha, scale 0 to 100) was 0. The “Plant response rating, Sedge, Umbrella” value (sedge, umbrella; 2000 g ai/ha, scale 0 to 100) was 0.

With `O=C1NCC(c2ccc(C(F)(F)F)nc2)C1C(=O)Nc1cccc(F)c1F` (racemic) [Compound 263] the “Plant response rating, Rice” value (rice; [1]) was 0, the “Plant response rating, Rice” value (rice; [2]) was 0 and the “Plant response rating, Rice” value (rice; [3]) was 0. For the same molecule, the “Plant response rating, Rice” value (rice; [8]) was 15, the “Plant response rating, Ducksalad” value (ducksalad; [1]) was 70 and the “Plant response rating, Ducksalad” value (ducksalad; [2]) was 90. The “Plant response rating, Ducksalad” value (ducksalad; [3]) was 100, the “Plant response rating, Ducksalad” value (ducksalad; [8]) was 100 and the “Plant response rating, Velvetleaf” value (velvetleaf; [9]) was 50. For the same molecule, the “Plant response rating, Velvetleaf” value (velvetleaf; [7]) was 50, the “Plant response rating, Sedge, Umbrella” value (sedge, umbrella; [1]) was 0 and the “Plant response rating, Sedge, Umbrella” value (sedge, umbrella; [2]) was 0. The “Plant response rating, Sedge, Umbrella” value (sedge, umbrella; [3]) was 0 and the “Plant response rating, Sedge, Umbrella” value (sedge, umbrella; [8]) was 0.

`O=C1NCC(c2cccc(C(F)(F)F)c2)C1C(=O)Nc1ccc(F)c(F)c1F` (centres unmarked) [Compound 315] was tested, and the “Plant response rating, Kochia” value (kochia; [10]) was 50, the “Plant response rating, Kochia” value (kochia; [4]) was 70 and the “Plant response rating, Kochia” value (kochia; [9]) was 40. The “Kochia plant response rating” value (kochia; [11]) was 60, the “Plant response rating, Blackgrass” value (blackgrass; [12]) was 40 and the “Plant response rating, Blackgrass” value (blackgrass; [13]) was 50. The “Plant response rating, Ryegrass, Italian” value (ryegrass, Italian; [10]) was 20, the “Plant response rating, Ryegrass, Italian” value (ryegrass, Italian; [4]) was 50 and the “Plant response rating, Ryegrass, Italian” value (ryegrass, Italian; [9]) was 40. The “Ryegrass, Italian plant response rating” value (ryegrass, Italian; [11]) was 70, the “Plant response rating, Ragweed” value (ragweed; [10]) was 20 and the “Plant response rating, Ragweed” value (ragweed; [4]) was 40. The “Plant response rating, Ragweed” value (ragweed; [9]) was 20, the “Ragweed plant response rating” value (ragweed; [11]) was 30 and the “Plant response rating, Galium” value (galium; [12]) was 40. The “Plant response rating, Galium” value (galium; [13]) was 50.

With `O=C1NCC(c2cccc(C(F)(F)F)c2)C1C(=O)Nc1cccc(Cl)c1F` (centres unmarked) [Compound 316] the “Plant response rating, Kochia” value (kochia; [10]) was 30, the “Plant response rating, Kochia” value (kochia; [4]) was 40 and the “Plant response rating, Kochia” value (kochia; [9]) was 0. For the same molecule, the “Kochia plant response rating” value (kochia; [11]) was 30, the “Plant response rating, Blackgrass” value (blackgrass; [12]) was 30 and the “Plant response rating, Blackgrass” value (blackgrass; [13]) was 40. For the same molecule, the “Plant response rating, Ryegrass, Italian” value (ryegrass, Italian; [10]) was 20, the “Plant response rating, Ryegrass, Italian” value (ryegrass, Italian; [4]) was 30 and the “Plant response rating, Ryegrass, Italian” value (ryegrass, Italian; [9]) was 20. The “Ryegrass, Italian plant response rating” value (ryegrass, Italian; [11]) was 50, the “Plant response rating, Ragweed” value (ragweed; [10]) was 20 and the “Plant response rating, Ragweed” value (ragweed; [4]) was 30. The “Plant response rating, Ragweed” value (ragweed; [9]) was 20, the “Ragweed plant response rating” value (ragweed; [11]) was 30 and the “Plant response rating, Galium” value (galium; [12]) was 20. The “Plant response rating, Galium” value (galium; [13]) was 40.

In the case of `O=C1NCC(c2cccc(OC(F)F)c2)C1C(=O)Nc1ccc(F)c(F)c1F` (centres unmarked) [Compound 325], the “Plant response rating, Kochia” value (kochia; [10]) is reported as 60, the “Plant response rating, Kochia” value (kochia; [4]) is reported as 80 and the “Plant response rating, Kochia” value (kochia; [9]) is reported as 70. The “Kochia plant response rating” value (kochia; [11]) was 80, the “Plant response rating, Blackgrass” value (blackgrass; [12]) was 50 and the “Plant response rating, Blackgrass” value (blackgrass; [13]) was 50. The “Plant response rating, Ryegrass, Italian” value (ryegrass, Italian; [10]) was 30, the “Plant response rating, Ryegrass, Italian” value (ryegrass, Italian; [4]) was 50 and the “Plant response rating, Ryegrass, Italian” value (ryegrass, Italian; [9]) was 30. The “Ryegrass, Italian plant response rating” value (ryegrass, Italian; [11]) was 50, the “Plant response rating, Ragweed” value (ragweed; [10]) was 20 and the “Plant response rating, Ragweed” value (ragweed; [4]) was 60. The “Plant response rating, Ragweed” value (ragweed; [9]) was 30, the “Ragweed plant response rating” value (ragweed; [11]) was 50 and the “Plant response rating, Galium” value (galium; [12]) was 50. The “Plant response rating, Galium” value (galium; [13]) was 60.
